Assay results taken from US4684649A, “Quinoxaline derivatives useful for treatment and prophylaxis of swine dysentery and as animal growth promotants” (priority 1985, dated 1987).
Converted amounts (≈) assume the structure as drawn.

How the values were obtained:
[1] = tested on: Salmonella Typhimurium TA 100; assay: Ames test, in the absence of microsomial extract, strain TA 100; format: cell-based
Text: (§1) Mutation Test determined according to the "Ames test"
(§2) (B.N. Ames et al. Mutation Research 31, page 347, 1975).
(§3) The compound 2-[bis-(1'-hydroxy-3'-t-butyl-4'-methoxy-phenyl-2')-methyl-quinoxaline-1,4-dioxide prepared according to Example 1 was submitted to the Ames test showing the results summarized in the following two tables: […]

[2] = tested on: Salmonella Typhimurium TA 1535; assay: Ames test, in the absence of microsomial extract, strain TA 1535; format: cell-based
Text: as §1, §2, §3

[3] = tested on: Salmonella Typhimurium TA 1535; assay: Ames test, in the presence of microsomial extract, strain TA 1535; format: cell-based
Text: as §1, §2, §3

[4] = growth promotion and feed efficiency in pigs; format: in vivo; details: 28 days, 200 grams/ton in diet
Text: The efficacy of compound of Example 1 in promoting growth and improving the feed efficiency is illustrated below. 20 healthy pigs of same age and of average same weight were divided into two groups. One group of 10 pigs served as control and was fed a basal non-supplemented diet, the other group of 10 pigs received the same basal diet, but supplemented with 200 grams/ton of compound of Example 1.

[5] = tested on: Salmonella Typhimurium TA 1538; assay: Ames test, in the absence of microsomial extract, strain TA 1538; format: cell-based
Text: as §1, §2, §3

Treponema hyodysenteriae = assay: in vitro antibacterial activity (MIC) against Treponema hyodysenteriae; format: cell-based; details: Brachyspira hyodysenteriae, growth medium with about 5% bovine blood and about 3% tryptose agar
Description: MIC's against Treponema hyodysenteriae were determined by spreading appropriate dilutions of the microorganism on a growth medium containing about 5% bovine blood and about 3% tryptose agar.
Among the compounds of structure I subjected to in vitro screening were the following in which R and R1 have the above meaning.

[6] = tested on: Salmonella Typhimurium TA 98; assay: Ames test, in the presence of microsomial extract, strain TA 98; format: cell-based
Text: as §1, §2, §3

[7] = tested on: Salmonella Typhimurium TA 1538; assay: Ames test, in the presence of microsomial extract, strain TA 1538; format: cell-based
Text: as §1, §2, §3

Treponema hyodysenterae = assay: medicated feed in pigs exposed to Treponema hyodysenterae infections (swine dysentery); format: in vivo
Text: Compound of Example 1 was mixed with the swine balanced feed described on page 8 at the ratio of 200 grams/ton. A group of 30 pigs was fed with this medicated diet. An equivalent group of pigs was used as control. The two groups were stabled in pigsties where infections of Treponema hyodysenterae have been observed. No one of the animals under treatment was getting ill, while the 50% of the untreated animals in the control group was clearly showing typical symptoms of swine dysentery.

[8] = tested on: Salmonella Typhimurium TA 98; assay: Ames test, in the absence of microsomial extract, strain TA 98; format: cell-based
Text: as §1, §2, §3

[9] = tested on: Salmonella Typhimurium TA 100; assay: Ames test, in the presence of microsomial extract, strain TA 100; format: cell-based
Text: as §1, §2, §3

Salmonella Typhimurium = details: Ames test; prior art compound; cited from earlier work

## COc1ccc(O)c(C(c2c(O)ccc(OC)c2C(C)(C)C)c2c[n+]([O-])c3ccccc3[n+]2[O-])c1C(C)(C)C [Example 1, 2-[bis(1'-hydroxy-3'-t-butyl-4'-methoxy-phenyl-2')-methyl]-quinoxaline-1,4-dioxide]
[1]; TA 100, 10 mcg
  Number of mutating colonies/plate: 168 mutating colonies/plate
[1]; TA 100, 30 mcg
  Number of mutating colonies/plate: 165 mutating colonies/plate
[1]; TA 100, 100 mcg
  Number of mutating colonies/plate: 151 mutating colonies/plate
[1]; TA 100, 300 mcg
  Number of mutating colonies/plate: 162 mutating colonies/plate
[1]; TA 100, 600 mcg
  Number of mutating colonies/plate: 177 mutating colonies/plate
[1]; TA 100, 1000 mcg
  Number of mutating colonies/plate: 142 mutating colonies/plate
[2]; TA 1535, 10 mcg
  Number of mutating colonies/plate: 15 mutating colonies/plate
[2]; TA 1535, 30 mcg
  Number of mutating colonies/plate: 12 mutating colonies/plate
[2]; TA 1535, 100 mcg
  Number of mutating colonies/plate: 9 mutating colonies/plate
[2]; TA 1535, 300 mcg
  Number of mutating colonies/plate: 13 mutating colonies/plate
[2]; TA 1535, 600 mcg
  Number of mutating colonies/plate: 25 mutating colonies/plate
[2]; TA 1535, 1000 mcg
  Number of mutating colonies/plate: 16 mutating colonies/plate
[3]; TA 1535, 10 mcg
  Number of mutating colonies/plate: 23 mutating colonies/plate
[3]; TA 1535, 30 mcg
  Number of mutating colonies/plate: 26 mutating colonies/plate
[3]; TA 1535, 100 mcg
  Number of mutating colonies/plate: 22 mutating colonies/plate
[3]; TA 1535, 300 mcg
  Number of mutating colonies/plate: 16 mutating colonies/plate
[3]; TA 1535, 600 mcg
  Number of mutating colonies/plate: 22 mutating colonies/plate
[3]; TA 1535, 1000 mcg
  Number of mutating colonies/plate: 20 mutating colonies/plate
[4]
  increase in feed efficiency over the controls: 5,5%
[4]; versus control ration
  body weight increase over control (heavier on average): 4,6%
solubility; in acetone
  solubility: slightly soluble
solubility; in benzene
  solubility: slightly soluble
solubility; in dimethylformamide
  solubility: soluble
solubility; in dioxane
  solubility: soluble
solubility; in methanol
  solubility: slightly soluble
solubility; in tetrahydrofuran
  solubility: soluble
solubility; in water
  solubility: very scarcely soluble
[5]; TA 1538, 10 mcg
  Number of mutating colonies/plate: 11 mutating colonies/plate
[5]; TA 1538, 30 mcg
  Number of mutating colonies/plate: 16 mutating colonies/plate
[5]; TA 1538, 100 mcg
  Number of mutating colonies/plate: 15 mutating colonies/plate
[5]; TA 1538, 300 mcg
  Number of mutating colonies/plate: 10 mutating colonies/plate
[5]; TA 1538, 600 mcg
  Number of mutating colonies/plate: 17 mutating colonies/plate
[5]; TA 1538, 1000 mcg
  Number of mutating colonies/plate: 17 mutating colonies/plate
Treponema hyodysenteriae
  MIC: 0.1 µg/mL (≈ 0.188 µM)
[6]; TA 98, 10 mcg
  Number of mutating colonies/plate: 30 mutating colonies/plate
[6]; TA 98, 30 mcg
  Number of mutating colonies/plate: 27 mutating colonies/plate
[6]; TA 98, 100 mcg
  Number of mutating colonies/plate: 24 mutating colonies/plate
[6]; TA 98, 300 mcg
  Number of mutating colonies/plate: 20 mutating colonies/plate
[6]; TA 98, 600 mcg
  Number of mutating colonies/plate: 24 mutating colonies/plate
[6]; TA 98, 1000 mcg
  Number of mutating colonies/plate: 28 mutating colonies/plate
[7]; TA 1538, 10 mcg
  Number of mutating colonies/plate: 16 mutating colonies/plate
[7]; TA 1538, 30 mcg
  Number of mutating colonies/plate: 14 mutating colonies/plate
[7]; TA 1538, 100 mcg
  Number of mutating colonies/plate: 15 mutating colonies/plate
[7]; TA 1538, 300 mcg
  Number of mutating colonies/plate: 8 mutating colonies/plate
[7]; TA 1538, 600 mcg
  Number of mutating colonies/plate: 18 mutating colonies/plate
[7]; TA 1538, 1000 mcg
  Number of mutating colonies/plate: 14 mutating colonies/plate
Treponema hyodysenterae; 200 grams/ton of feed, 30 pigs, control group 50% ill
  animals under treatment getting ill: No one
Treponema hyodysenterae; after 2 weeks of treatment with medicated feed, 200 grams/ton
  recovery of the infected animals: recovered completely
[8]; TA 98, 10 mcg
  Number of mutating colonies/plate: 25 mutating colonies/plate
[8]; TA 98, 30 mcg
  Number of mutating colonies/plate: 24 mutating colonies/plate
[8]; TA 98, 100 mcg
  Number of mutating colonies/plate: 27 mutating colonies/plate
[8]; TA 98, 300 mcg
  Number of mutating colonies/plate: 24 mutating colonies/plate
[8]; TA 98, 600 mcg
  Number of mutating colonies/plate: 27 mutating colonies/plate
[8]; TA 98, 1000 mcg
  Number of mutating colonies/plate: 27 mutating colonies/plate
[9]; TA 100, 10 mcg
  Number of mutating colonies/plate: 158 mutating colonies/plate
[9]; TA 100, 30 mcg
  Number of mutating colonies/plate: 143 mutating colonies/plate
[9]; TA 100, 100 mcg
  Number of mutating colonies/plate: 135 mutating colonies/plate
[9]; TA 100, 300 mcg
  Number of mutating colonies/plate: 174 mutating colonies/plate
[9]; TA 100, 600 mcg
  Number of mutating colonies/plate: 175 mutating colonies/plate
[9]; TA 100, 1000 mcg
  Number of mutating colonies/plate: 125 mutating colonies/plate

## COc1ccc(O)c(C(c2c(O)ccc(OC)c2C(C)C)c2c[n+]([O-])c3ccccc3[n+]2[O-])c1C(C)C [Example 2, 2-[bis(1'-hydroxy-3'-i-propyl-4'-methoxy-phenyl-2')-methyl]-quinoxaline-1,4-dioxide]
Treponema hyodysenteriae
  MIC: 0.9 µg/mL (≈ 1.78 µM)

## COC(=O)NN=Cc1c[n+]([O-])c2ccccc2[n+]1[O-] [carbadox, 2-formyl-quinoxaline-1,4-dioxide carbomethoxyhydrazone]
Salmonella Typhimurium
  mutagenic effect: substantial mutagenic effect

## [N-]=[N+]=[N-] [sodium azide, reference compound]
[2]; TA 1535, 10 mcg
  Number of mutating colonies/plate: 1006 mutating colonies/plate
[6]; TA 98, 10 mcg
  Number of mutating colonies/plate: 1803 mutating colonies/plate
[7]; TA 1538, 10 mcg
  Number of mutating colonies/plate: 2258 mutating colonies/plate
